A value given as a limit tells only on which side of the number the result lay.

For the test, the target named is T1, KRAS^G12C::SOS1 (Homo sapiens, UniProt Q07889).
T1 sequence (Q07889 1-1333): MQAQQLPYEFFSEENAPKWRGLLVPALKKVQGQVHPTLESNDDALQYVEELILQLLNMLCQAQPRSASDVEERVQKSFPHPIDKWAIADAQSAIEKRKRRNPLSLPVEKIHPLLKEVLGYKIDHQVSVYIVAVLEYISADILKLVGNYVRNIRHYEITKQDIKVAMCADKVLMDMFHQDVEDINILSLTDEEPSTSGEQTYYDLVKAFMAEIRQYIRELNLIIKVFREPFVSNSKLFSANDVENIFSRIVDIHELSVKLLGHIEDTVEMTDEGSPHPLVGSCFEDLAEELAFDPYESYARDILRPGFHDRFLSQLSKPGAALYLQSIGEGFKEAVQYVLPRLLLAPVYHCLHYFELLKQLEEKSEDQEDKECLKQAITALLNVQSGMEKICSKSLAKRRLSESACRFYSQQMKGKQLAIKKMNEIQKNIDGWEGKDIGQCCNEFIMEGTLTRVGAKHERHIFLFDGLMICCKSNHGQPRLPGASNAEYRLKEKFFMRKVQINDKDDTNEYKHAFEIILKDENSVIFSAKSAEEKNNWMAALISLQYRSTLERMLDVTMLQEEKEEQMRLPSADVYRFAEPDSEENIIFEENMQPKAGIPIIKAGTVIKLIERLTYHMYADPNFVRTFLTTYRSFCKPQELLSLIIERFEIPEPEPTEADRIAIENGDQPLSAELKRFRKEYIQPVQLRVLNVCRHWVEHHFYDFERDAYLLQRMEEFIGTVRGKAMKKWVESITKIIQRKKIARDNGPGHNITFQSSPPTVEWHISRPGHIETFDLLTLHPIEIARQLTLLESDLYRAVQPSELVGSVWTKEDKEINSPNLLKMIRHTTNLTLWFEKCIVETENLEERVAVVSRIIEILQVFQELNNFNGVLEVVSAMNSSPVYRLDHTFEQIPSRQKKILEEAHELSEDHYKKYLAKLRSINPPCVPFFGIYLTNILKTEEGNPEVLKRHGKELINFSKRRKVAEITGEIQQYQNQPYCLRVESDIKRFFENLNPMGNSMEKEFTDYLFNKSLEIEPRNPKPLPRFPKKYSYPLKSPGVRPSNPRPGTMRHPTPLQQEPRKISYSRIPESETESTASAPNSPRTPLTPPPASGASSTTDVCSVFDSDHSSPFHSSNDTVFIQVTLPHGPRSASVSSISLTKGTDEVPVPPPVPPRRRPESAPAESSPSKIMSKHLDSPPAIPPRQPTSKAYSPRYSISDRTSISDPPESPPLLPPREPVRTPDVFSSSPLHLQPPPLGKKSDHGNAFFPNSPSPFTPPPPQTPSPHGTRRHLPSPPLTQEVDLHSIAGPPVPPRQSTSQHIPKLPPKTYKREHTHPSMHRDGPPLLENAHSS
The test can be described thus: KRAS G12C::SOS1 protein-protein interaction (PPI) inhibition assay (HTRF binding kit). Background: In TR-FRET formats the signal depends on donor and acceptor labels being close together.
In general, IC50 refers to the concentration needed to halve the response being measured. Read a high IC50 as lower potency. For the compound `CNCc1ccc(F)cc1-c1ccc([C@@H](C)NC(=O)c2ccc(=O)n(-c3ccccc3F)n2)s1` [Example 286, N-[(1R)-1-[5-[5-fluoro-2-(methylaminomethyl)phenyl]-2-thienyl]ethyl]-1-(2-fluorophenyl)-6-oxo-pyridazine-3-carboxamide], the concentration for half-maximal inhibition (IC50) was below 1000 nM. Take `CNCc1ccc(F)cc1-c1ccc([C@@H](C)NC(=O)c2ccc(=O)n(-c3ccccc3F)c2)s1` [Example 287, N-[(1R)-1-[5-[5-fluoro-2-(methylaminomethyl)phenyl]-2-thienyl]ethyl]-1-(2-fluorophenyl)-6-oxo-pyridine-3-carboxamide]: the IC50 was below 1000 nM. For the compound `CNCc1ccc(F)cc1-c1ccc([C@@H](C)NC(=O)c2ccc(=O)n(-c3cccnc3F)n2)s1` [Example 288, N-[(1R)-1-[5-[5-fluoro-2-(methylaminomethyl)phenyl]-2-thienyl]ethyl]-1-(2-fluoro-3-pyridyl)-6-oxo-pyridazine-3-carboxamide], the IC50 was below 1000 nM. With `CCNCc1ccc(F)cc1-c1ccc([C@@H](C)NC(=O)c2ccc(=O)n(-c3cccnc3F)n2)s1` [Example 289, N-[(1R)-1-[5-[2-(ethylaminomethyl)-5-fluorophenyl]-2-thienyl]ethyl]-1-(2-fluoro-3-pyridyl)-6-oxo-pyridazine-3-carboxamide], the IC50 was below 1000 nM. As to `CNCc1ccccc1-c1ccc([C@@H](C)NC(=O)c2nn(-c3cnn(C)c3)c(=O)c3ccsc23)s1` [Example 290, N-[(1R)-1-[5-[2-(methylaminomethyl)phenyl]-2-thienyl]ethyl]-5-(1-methylpyrazol-4-yl)-4-oxo-thieno[2,3-d]pyridazine-7-carboxamide], the IC50 was below 1000 nM. Compound `CNCc1sccc1-c1cccc([C@@H](C)NC(=O)c2ccc(=O)n(-c3ccccc3F)n2)c1` [Example 291, 1-(2-fluorophenyl)-N-[(1R)-1-[3-[2-(methylaminomethyl)-3-thienyl]phenyl]ethyl]-6-oxo-pyridazine-3-carboxamide] came in with a half-inhibitory concentration (IC50) below 1000 nM. `CNCc1ccc(Cl)cc1-c1ccc([C@@H](C)NC(=O)c2ccc(=O)n(-c3cnn(C)c3)n2)s1` [Example 292, (R)-N-(1-(5-(5-chloro-2-((methylamino)methyl)phenyl)thiophen-2-yl)ethyl)-1-(1-methyl-1H-pyrazol-4-yl)-6-oxo-1,6-dihydropyridazine-3-carboxamide] yielded an IC50 below 1000 nM.

Compound `CNCc1cccc(F)c1-c1ccc([C@@H](C)NC(=O)c2ccc(=O)n(-c3cccnc3F)n2)s1` [Example 293, N-[(1R)-1-[5-[2-fluoro-6-(methylaminomethyl)phenyl]-2-thienyl]ethyl]-1-(2-fluoro-3-pyridyl)-6-oxo-pyridazine-3-carboxamide] returned an IC50 below 1000 nM. With `CNCc1ccsc1-c1cccc([C@@H](C)NC(=O)c2ccc(=O)n(-c3ccccc3F)n2)c1` [Example 294, 1-(2-fluorophenyl)-N-[(1R)-1-[3-[3-(methylaminomethyl)-2-thienyl]phenyl]ethyl]-6-oxo-pyridazine-3-carboxamide], the IC50 is below 1000 nM.

In turn, `CNCc1ccc(F)cc1-c1ccc([C@@H](C)NC(=O)c2ccc(=O)n(-c3cnn(C)c3)n2)s1` [Example 296, N-[(1R)-1-[5-[5-fluoro-2-(methylaminomethyl)phenyl]-2-thienyl]ethyl]-1-(1-methylpyrazol-4-yl)-6-oxo-pyridazine-3-carboxamide] came in with an IC50 below 1000 nM. Regarding `CNCc1ccc(F)cc1-c1ccc([C@@H](C)NC(=O)c2ccc(=O)n(-c3cccc(C(=O)N(C)C)c3F)n2)s1` [Example 297, 1-[3-(dimethylcarbamoyl)-2-fluoro-phenyl]-N-[(1R)-1-[5-[5-fluoro-2-(methylaminomethyl)phenyl]-2-thienyl]ethyl]-6-oxo-pyridazine-3-carboxamide], the IC50 is below 1000 nM.

Regarding `CNCc1ccccc1-c1ccc([C@@H](C)NC(=O)c2ccc(=O)n(-c3ccccc3F)n2)s1` [Example 298, 1-(2-fluorophenyl)-N-[(1R)-1-[5-[2-(methylaminomethyl)phenyl]-2-thienyl]ethyl]-6-oxo-pyridazine-3-carboxamide], the IC50 is below 1000 nM. In the case of `C[C@@H](NC(=O)c1ccc(=O)n(-c2ccccc2F)n1)c1ccc(-c2ccccc2CO)s1` [Example 299, 1-(2-fluorophenyl)-N-[(1R)-1-[5-[2-(hydroxymethyl)phenyl]-2-thienyl]ethyl]-6-oxo-pyridazine-3-carboxamide], the IC50 lay in the range of 1000 to 10000 nM. Compound `C[C@@H](NC(=O)c1ccc(=O)n(-c2ccccc2F)n1)c1ccc(-c2cc(F)ccc2CNCCO)s1` [Example 300, N-[(1R)-1-[5-[5-fluoro-2-[(2-hydroxyethylamino)methyl]phenyl]-2-thienyl]ethyl]-1-(2-fluorophenyl)-6-oxo-pyridazine-3-carboxamide] came in with an IC50 below 1000 nM. For `CNCc1ccc(Cl)cc1-c1ccc([C@@H](C)NC(=O)c2ccc(=O)n(C3CCN(C(C)=O)CC3)n2)s1` [Example 301, 1-(1-acetyl-4-piperidyl)-N-[(1R)-1-[5-[5-chloro-2-(methylaminomethyl)phenyl]-2-thienyl]ethyl]-6-oxo-pyridazine-3-carboxamide], the IC50 was below 1000 nM. With `CNCc1ccc(F)cc1-c1ccc([C@@H](C)NC(=O)c2ccc(=O)n(-c3cccnc3NC)n2)s1` [Example 302, N-[(1R)-1-[5-[5-fluoro-2-(methylaminomethyl)phenyl]-2-thienyl]ethyl]-1-[2-(methylamino)-3-pyridyl]-6-oxo-pyridazine-3-carboxamide] the figure was below 1000 nM; with `C[C@@H](NC(=O)c1ccc(=O)n(-c2ccccc2F)n1)c1cccc(-n2ccccc2=O)c1` [Example 303, 1-(2-fluorophenyl)-6-oxo-N-[(1R)-1-[3-(2-oxo-1-pyridyl)phenyl]ethyl]pyridazine-3-carboxamide], above 10000 nM; with `C[C@@H](NC(=O)c1ccc(=O)n(-c2ccccc2F)n1)c1cccc(-n2ccc(=O)cc2)c1` [Example 304], above 10000 nM.

Turning to `C[C@@H](NC(=O)c1ccc(=O)n(-c2ccccc2F)n1)c1cccc(Oc2cccnc2)c1` [Example 305, 1-(2-fluorophenyl)-6-oxo-N-[(1R)-1-[3-(3-pyridyloxy)phenyl]ethyl]pyridazine-3-carboxamide], the IC50 was above 10000 nM. In turn, `C[C@@H](NC(=O)c1ccc(=O)n(-c2ccccc2F)n1)c1cccc(Oc2ccccc2)c1` [Example 306, 1-(2-fluorophenyl)-6-oxo-N-[(1R)-1-(3-phenoxyphenyl)ethyl]pyridazine-3-carboxamide] displayed an IC50 above 10000 nM.

`C[C@@H](NC(=O)c1nn(-c2cnn(C)c2)c(=O)c2cc[nH]c12)c1cc(N)cc(C(F)(F)F)c1` [Example 307, N-[(1R)-1-[3-amino-5-(trifluoromethyl)phenyl]ethyl]-5-(1-methylpyrazol-4-yl)-4-oxo-1H-pyrrolo[2,3-d]pyridazine-7-carboxamide]: the IC50 is below 1000 nM.

Consider `C[C@@H](NC(=O)c1nn(-c2ccccc2)c(=O)c2cc[nH]c12)c1cc(N)cc(C(F)(F)F)c1` [Example 308, N-[(1R)-1-[3-amino-5-(trifluoromethyl)phenyl]ethyl]-4-oxo-5-phenyl-1H-pyrrolo [2,3-d] pyridazine-7-carboxamide], for which the IC50 was below 1000 nM.

Take `C[C@@H](NC(=O)c1nn(-c2ccccc2F)c(=O)c2ccsc12)c1cc(N)cc(C(F)(F)F)c1` [Example 309, N-[(1R)-1-[3-amino-5-(trifluoromethyl)phenyl]ethyl]-5-(2-fluorophenyl)-4-oxo-thieno[2,3-d]pyridazine-7-carboxamide]: the IC50 was below 1000 nM. Under `C[C@@H](NC(=O)c1nn(-c2ccccc2F)c(=O)c2ccsc12)c1cccc(C(F)(F)CO)c1F` [Example 310, N-[(1R)-1-[3-(1,1-difluoro-2-hydroxy-ethyl)-2-fluoro-phenyl]ethyl]-5-(2-fluorophenyl)-4-oxo-thieno[2,3-d]pyridazine-7-carboxamide] stands below 1000 nM; under `C[C@@H](NC(=O)c1nn(-c2cccnc2F)c(=O)c2ccsc12)c1cc(N)cc(C(F)(F)F)c1` [Example 311, N-[(1R)-1-[3-amino-5-(trifluoromethyl)phenyl]ethyl]-5-(2-fluoro-3-pyridyl)-4-oxo-thieno[2,3-d]pyridazine-7-carboxamide], below 1000 nM.

The values are drawn from EP4667458A1 (Kanaph Therapeutics Inc., priority 2023, dated 2024).
